Experimental data: patent US20230050965A1, “SSTR5 ANTAGONISTS” (Kallyope, Inc., priority 2019, published 2023)
pIC50: −log10 of the molar value.

Each compound was assayed against T1, human SSTR5 (Homo sapiens, UniProt P35346) (assay: Inositol phosphate (IP1) accumulation assay, antagonist mode). Details: CHO-K1 cells stably co-expressing human SSTR5 with Gqi5; pre-incubation with antagonist, then SST28 agonist; IP1 HTRF readout.
T1 construct: expressed in transfected cells
Assay type: cell-based
Description: Inositol Phosphate Accumulation Assay
CHO-K1 cells stably co-expressing human SSTR5 with Gqi5 were developed using Jump-In technology from Thermo-Fisher. Gqi5 is the mouse G alpha q protein, that was modified to interact with Gi-coupled GPCRs as described previously (Coward, P.; Chan, S. D.; Wada, H. G.; Humphries, G. M.; Conklin, B. R. Chimeric G proteins Allow a High-Throughput Signaling Assay of Gi-Coupled Receptors. Anal Biochem. 1999, 270(2), 242-248).
Co-expression of Gqi5 with SSTR5 allowed monitoring of SSTR5 activity by following IP1 accumulation. The assay was performed in a 384-well plate format using the IP1 assay kit from Cis-Bio in an antagonist mode, i.e., pre-incubation with antagonist following by receptor activation by agonist at a concentration generating 90% of full activation. Frozen cells expressing human SSTR5 were thawed, washed, and then plated in DMEM supplemented with 10% FBS and non-essential amino acids. 40 μL of 2.5×10^5 cells/mL were plated on a Poly D-Lysine coated 384-well white plate. The cells were then incubated for 16 hr. at 37° C./5% CO2. After 16 hour the medium was removed, and 10 μL of stimulation buffer was added to the cells. Test compounds were dissolved in DMSO at concentrations 2000-fold that of the final assay concentrations. 7.5 nL compound solutions were transferred to the cell plates using a Labcyte Echo® acoustic liquid handler. The plates were then incubated for 15 minutes at 37° C./5% CO2. After the first incubation, 5 μL of 30 nM SST28 were added to the cells, and the cells were incubated for 90 minutes at 37° C./5% CO2. 5 μL of detection buffer (prepared as described in the IP-1 kit) was added to each well, and the plates were incubated at RT for 1 hour.
TR-FRET was measured using a ClarioSTAR plate reader, calculating the ratio between emissions at 665 nm and 620 nm (HTRF ratio). The HTRF ratio for positive (Max) and negative (Min) controls were used to normalize HTRF data and generate values for % inhibition. IC50 and maximal inhibition values were determined using a standard 4-parameter fit.

T1 sequence (P35346 whole entry): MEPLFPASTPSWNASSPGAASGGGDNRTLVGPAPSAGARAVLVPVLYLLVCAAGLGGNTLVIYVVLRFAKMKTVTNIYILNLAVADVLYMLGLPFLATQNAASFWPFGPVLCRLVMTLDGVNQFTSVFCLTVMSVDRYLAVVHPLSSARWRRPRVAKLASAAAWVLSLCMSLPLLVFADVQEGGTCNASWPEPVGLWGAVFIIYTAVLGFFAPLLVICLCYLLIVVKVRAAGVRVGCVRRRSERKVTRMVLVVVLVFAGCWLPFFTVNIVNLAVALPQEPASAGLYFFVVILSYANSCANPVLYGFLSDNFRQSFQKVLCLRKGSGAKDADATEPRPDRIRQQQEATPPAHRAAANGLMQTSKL

`CCOc1cc(-c2ccc(F)cc2)c(C2CC2)cc1CN1CCC2(CC1)CN([C@H]1CC[C@@H](P(=O)(O)O)CC1)C(=O)O2` (single isomer, unassigned) [Compound 33, ((cis)-4-(8-((2-cyclopropyl-5-ethoxy-4'-fluoro-[1,1'-biphenyl]-4-yl)methyl)-2-oxo-1-oxa-3,8-diazaspiro[4.5]decan-3-yl)cyclohexyl)phosphonic acid] and `CCOc1cc(-c2ccc(F)cc2)c(C2CC2)cc1CN1CCC2(CC1)CN([C@H]1CC[C@H](P(=O)(O)O)CC1)C(=O)O2` (single isomer, unassigned) [Compound 34, ((trans)-4-(8-((2-cyclopropyl-5-ethoxy-4'-fluoro-[1,1'-biphenyl]-4-yl)methyl)-2-oxo-1-oxa-3,8-diazaspiro[4.5]decan-3-yl)cyclohexyl)phosphonic acid] cannot be ordered by pIC50: at least 7.00 for the first, at least 7.00 for the second.

`CCOc1nc(-c2ccc(F)cc2)c(C2CC2)cc1CN1CCC2(CC1)CN(c1ccc(P(C)(=O)O)cc1)C(=O)O2` [Compound 4, (4-(8-((5-cyclopropyl-2-ethoxy-6-(4-fluorophenyl)pyridin-3-yl)methyl)-2-oxo-1-oxa-3,8-diazaspiro[4.5]decan-3-yl)phenyl)(methyl)phosphinic acid] and `CCOc1nc(-c2ccc(F)cc2)c(C2CC2)cc1CN1CCC2(CC1)CN(c1ccc(P(=O)(O)O)cc1)C(=O)O2` [Compound 10, (4-(8-((5-cyclopropyl-2-ethoxy-6-(4-fluorophenyl)pyridin-3-yl)methyl)-2-oxo-1-oxa-3,8-diazaspiro[4.5]decan-3-yl)phenyl)phosphonic acid] cannot be ordered by pIC50: at least 7.00 for the first, at least 7.00 for the second.

`CCOc1cc(-c2ccc(F)cc2)c(C2CC2)cc1CN1CCC2(CC1)CN(c1ccc(P(=O)(O)O)cn1)C(=O)O2` [Compound 5, (6-(8-((2-cyclopropyl-5-ethoxy-4′-fluoro-[1,1′-biphenyl]-4-yl)methyl)-2-oxo-1-oxa-3,8-diazaspiro[4.5]decan-3-yl)pyridin-3-yl)phosphonic acid] and `CCOc1cc(-c2ccc(F)cc2)c(C2CC2)cc1CN1CCC2(CC1)CN(c1ccc(P(=O)(O)O)nc1)C(=O)O2` [Compound 6, (5-(8-((2-cyclopropyl-5-ethoxy-4′-fluoro-[1,1′-biphenyl]-4-yl)methyl)-2-oxo-1-oxa-3,8-diazaspiro[4.5]decan-3-yl)pyridin-2-yl)phosphonic acid] cannot be ordered by pIC50: at least 7.00 for the first, at least 7.00 for the second.

`CCOc1cc(-c2ccc(F)cc2)c(C2CC2)cc1CN1CCC2(CC1)CC(=O)N(c1ccc(P(C)(=O)O)cc1)C2` [Compound 7, (4-(8-((2-cyclopropyl-5-ethoxy-4′-fluoro-[1,1′-biphenyl]-4-yl)methyl)-3-oxo-2,8-diazaspiro[4.5]decan-2-yl)phenyl)(methyl)phosphinic acid] and `CCOc1cc(-c2ccc(F)cc2)c(C2CC2)cc1CN1CCC2(CC1)CN(c1ccc(P(=O)(O)O)cc1)C(=O)N2` [Compound 22, (4-(8-((2-cyclopropyl-5-ethoxy-4′-fluoro-[1,1′-biphenyl]-4-yl)methyl)-2-oxo-1,3,8-triazaspiro[4.5]decan-3-yl)phenyl)phosphonic acid] cannot be ordered by pIC50: at least 7.00 for the first, at least 7.00 for the second.

`CCOc1cc(C#N)c(C2CC2)cc1CN1CCC2(CC1)CN(c1ccc(P(C)(=O)O)cc1)C(=O)O2` [Compound 8, (4-(8-(4-cyano-5-cyclopropyl-2-ethoxybenzyl)-2-oxo-1-oxa-3,8-diazaspiro[4.5]decan-3-yl)phenyl)(methyl)phosphinic acid] and `CCOc1cc(-c2nc(C)no2)c(C2CC2)cc1CN1CCC2(CC1)CN(c1ccc(P(=O)(O)O)cc1)C(=O)O2` [Compound 26, (4-(8-(5-cyclopropyl-2-ethoxy-4-(3-methyl-1,2,4-oxadiazol-5-yl)benzyl)-2-oxo-1-oxa-3,8-diazaspiro[4.5]decan-3-yl)phenyl)phosphonic acid] cannot be ordered by pIC50: at least 7.00 for the first, at least 7.00 for the second.

`CCOc1nc(-c2ccc(F)cc2)c(C2CC2)cc1CN1CCC2(CC1)CN(C13CC(CP(=O)(O)O)(C1)C3)C(=O)O2` [Compound 11, ((3-(8-((5-cyclopropyl-2-ethoxy-6-(4-fluorophenyl)pyridin-3-yl)methyl)-2-oxo-1-oxa-3,8-diazaspiro[4.5]decan-3-yl)bicyclo[1.1.1]pentan-1-yl)methyl)phosphonic acid] and `CCOc1cc(-c2ccc(F)cc2)c(C2CC2)cc1CN1CCC2(CC1)CN(C13CC(CP(=O)(O)O)(C1)C3)C(=O)O2` [Compound 12, ((3-(8-((2-cyclopropyl-5-ethoxy-4′-fluoro-[1,1′-biphenyl]-4-yl)methyl)-2-oxo-1-oxa-3,8-diazaspiro[4.5]decan-3-yl)bicyclo[1.1.1]pentan-1-yl)methyl)phosphonic acid] cannot be ordered by pIC50: at least 7.00 for the first, at least 7.00 for the second.

`CCOc1cc(-c2ccc(F)cc2)c(C2CC2)cc1CN1CCC2(CC1)CN(c1ccc(B(O)O)cc1)C(=O)O2` [Compound 13, (4-(8-((2-cyclopropyl-5-ethoxy-4′-fluoro-[1,1′-biphenyl]-4-yl)methyl)-2-oxo-1-oxa-3,8-diazaspiro[4.5]decan-3-yl)phenyl)boronic acid] and `CCOc1cc(-c2ccc(F)cc2)c(C2CC2)cc1CN1CCC2(CC1)CN(c1ccc(CCNC(=N)NC(=N)N)cc1)C(=O)O2` [Compound 14, 1-carbamimidoyl-3-[2-[4-[8-[[5-cyclopropyl-2-ethoxy-4-(4-fluorophenyl)phenyl]methyl]-2-oxo-1-oxa-3,8-diazaspiro[4.5]decan-3-yl]phenyl]ethyl]guanidine] cannot be ordered by pIC50: at least 7.00 for the first, at least 7.00 for the second.

First: CCOc1cc(C(=O)OC)c(C2CC2)cc1CN1CCC2(CC1)CC(=O)N(c1ccc(CCCCNC(=O)NC(CO)(CO)CO)cc1)C2 [Compound 16, methyl 2-cyclopropyl-4-((2-(4-(4-(3-(1,3-dihydroxy-2-(hydroxymethyl)propan-2-yl)ureido)butyl)phenyl)-3-oxo-2,8-diazaspiro[4.5]decan-8-yl)methyl)-5-ethoxybenzoate]
Second: CCOc1cc(C(=O)OC)c(C2CC2)cc1CN1CCC2(CC1)CC(=O)N(c1ccc(CCCCNC(=O)CO)cc1)C2 [Compound 19, methyl 2-cyclopropyl-5-ethoxy-4-((2-(4-(4-(2-hydroxyacetamido)butyl)phenyl)-3-oxo-2,8-diazaspiro[4.5]decan-8-yl)methyl)benzoate]
The pIC50 of the first is lower: under 5.30 for the first, 5.30 to 6.00 for the second.

Compared with `CCOc1cc(C(=O)OC)c(C2CC2)cc1CN1CCC2(CC1)CC(=O)N(c1ccc(CCCCNC=O)cc1)C2` [Compound 17, methyl 2-cyclopropyl-5-ethoxy-4-((2-(4-(4-formamidobutyl)phenyl)-3-oxo-2,8-diazaspiro[4.5]decan-8-yl)methyl)benzoate], `CCOc1cc(C(=O)OC)c(C2CC2)cc1CN1CCC2(CC1)CC(=O)N(c1ccc(CCCCNC(N)=O)cc1)C2` [Compound 20, methyl 2-cyclopropyl-5-ethoxy-4-((3-oxo-2-(4-(4-ureidobutyl)phenyl)-2,8-diazaspiro[4.5]decan-8-yl)methyl)benzoate] is lower in pIC50: 6.00 to 7.00 for the first, 5.30 to 6.00 for the second.

Compared with `CCOc1cc(C(=O)OC)c(C2CC2)cc1CN1CCC2(CC1)CC(=O)N(c1ccc(CCCCNS(C)(=O)=O)cc1)C2` [Compound 18, methyl 2-cyclopropyl-5-ethoxy-4-((2-(4-(4-(methylsulfonamido)butyl)phenyl)-3-oxo-2,8-diazaspiro[4.5]decan-8-yl)methyl)benzoate], `CCOc1cc(C(=O)OC)c(C2CC2)cc1CN1CCC2(CC1)CC(=O)N(c1ccc(P(=O)(O)O)cc1)C2` [Compound 23, (4-(8-(5-cyclopropyl-2-ethoxy-4-(methoxycarbonyl)benzyl)-3-oxo-2,8-diazaspiro[4.5]decan-2-yl)phenyl)phosphonic acid] is lower in pIC50: 5.30 to 6.00 for the first, under 5.30 for the second.

`CCOc1cc(C(=O)OC)c(C2CC2)cc1CN1CCC2(CC1)CN(c1ccc(P(=O)(O)O)cc1)C(=O)N2` [Compound 21, (4-(8-(5-cyclopropyl-2-ethoxy-4-(methoxycarbonyl)benzyl)-2-oxo-1,3,8-triazaspiro[4.5]decan-3-yl)phenyl)phosphonic acid] and `CCOc1cc(C(=O)OC(C)C)c(C2CC2)cc1CN1CCC2(CC1)CC(=O)N(c1ccc(P(=O)(O)O)cc1)C2` [Compound 24, (4-(8-(5-cyclopropyl-2-ethoxy-4-(isopropoxycarbonyl)benzyl)-3-oxo-2,8-diazaspiro[4.5]decan-2-yl)phenyl)phosphonic acid] cannot be ordered by pIC50: at least 7.00 for the first, 6.00 to 7.00 for the second.

`CCOc1cc(-c2ccc(F)cc2)c(C2CC2)cc1CN1CCC2(CC1)CN(c1ccc(P(=O)(O)OCC)cc1)C(=O)N2` [Compound 25, ethyl hydrogen (4-(8-((2-cyclopropyl-5-ethoxy-4′-fluoro-[1,1′-biphenyl]-4-yl)methyl)-2-oxo-1,3,8-triazaspiro[4.5]decan-3-yl)phenyl)phosphonate] was tested, and the pIC50 was at least 7.00.
